Measured values reported in the NIST ThermoML archive (doi:10.1021/je900064e).
“And” between values parts separate entries of the source, which are not always exact repeats. Identical values can stand only once.

Columns and labels:
[1] = 101.33 kPa, Liquid; for speed of sound: Sing-around technique in a fixed-path interferometer
[2] = φn = volume fraction of the nth substance listed; details: 101 kPa, Liquid, φ1 = 0.5

CN(CCO)CCO [N-methyldiethanolamine]
[1]
Details | speed of sound [m/s]
288.15 K | 1598.8
293.15 K | 1583.1
298.15 K | 1564.1
303.15 K | 1546
308.15 K | 1531
313.15 K | 1516.1
318.15 K | 1503.2
323.15 K | 1490.4

[1], Vibrating tube method
Details | mass density [kg/m3]
288.15 K | 1044.32
293.15 K | 1040.59
298.15 K | 1036.79
303.15 K | 1033.06
308.15 K | 1029.26
313.15 K | 1025.45
318.15 K | 1021.62
323.15 K | 1018.22

CCO [ethanol] + O
[2]
Details | mass density | speed of sound [m/s]
288.15 K | 930.86 kg/m3 | 1546.7
293.15 K | 927.08 kg/m3 | 1534.1
298.15 K | 923.22 kg/m3 | 1521.1
303.15 K | 919.31 kg/m3 | 1507.9
308.15 K | 915.32 kg/m3 | 1494.5
313.15 K | 911.27 kg/m3 | 1480.9
318.15 K | 908.03 kg/m3 and 907.3 kg/m3 | 1467
323.15 K | 904.32 kg/m3 and 903.71 kg/m3 | 1452.9

OCCN(CCO)CCO [triethanolamine]
[1]
Details | mass density [kg/m3] | speed of sound [m/s]
288.15 K | 1126.19 | 1631.1
293.15 K | 1123.42 | 1623.9
298.15 K | 1120.99 | 1614.5
303.15 K | 1118.21 | 1604.5
308.15 K | 1115.38 | 1595.5
313.15 K | 1112.57 | 1587
318.15 K | 1109.78 | 1578.8
323.15 K | 1106.93 | 1570.6
